Where two headings read alike, the source gives them in different places. Ends that are not written are not given here.
Assays:
P. aeruginosa = test: Skin scarification (abscess) infection mouse model; assay type: in vivo; settings: single dose 16 μmol L^−1
Excerpt: Despite these therapeutic properties, mast-MO retained some cytotoxicity towards human cells at concentrations immediately above its antimicrobial and immunomodulatory activities hindering its use as a potential therapy in humans. FIG. 6B pertains to design of mast-MO derivatives through permutation of its FLPII motif. FIG. 6C depicts cytotoxic activity of mast-MO and its permutation variants against human embryonic kidney cells (i.e., HEK293). FIG. 6D provides a schematic of the experimental design. Briefly, the back of mice was shaved, and an abrasion was generated to damage the stratum corneum and the upper layer of the epidermis. Subsequently, an aliquot of […] containing 5×10^7 CFU/20 μL of P. aeruginosa in PBS was inoculated over each defined area. One day post-infection, peptides (16 μmol L^−1) were administered to the infected area. […] Six animals per group were euthanized and the area of scarified skin was excised two days post-infection, homogenized using a bead beater for 20 min (25 Hz), and serially diluted for CFU quantification (statistical significance was determined using two-way ANOVA followed by Dunnett's test, ***p<0.001). […]
Skin abscess infection mouse model. […] Animals were euthanized and the area of scarified skin was excised two- and four-days post-infection, homogenized using a bead beater for 20 minutes (25 Hz), and serially diluted for CFU quantification. […]

[1] = tested on: human red blood cells (hRBCs); test: Cytotoxicity / hemolysis against human red blood cells; assay type: cell-based
[2] = tested on: murine fibroblasts (L929); test: Cytotoxicity against L929 fibroblasts (MTT); assay type: cell-based
Method: Mammalian cells toxicity assays. L929 mice fibroblasts (Rio de Janeiro Cell Bank) and SPCs were seeded in 96-well microtiter plates in a concentration of 1.0×10^5 cells per well, in DMEM medium, supplemented with different concentrations of tested peptides (1-600 μM). After 48 h incubation, a thiazolyl blue tetrazolium bromide (MTT) protocol was performed. Briefly, 60% of the medium was removed, and 10 μL of MTT (5 mg mL^−1) (Sigma, USA) solution was added to each well and the plate was incubated for 4 h, in 5% CO2, at 37° C. The blue formazan product generated was dissolved by the addition of 100 μL of 100% DMSO (Mallinckrodt, Germany) per well. Plates were then gently swirled for 5 min, at room temperature, to dissolve the precipitate. The absorbance was monitored at 575 nm using a microplate spectrophotometer (Bio-Tek, USA). Cytotoxicity was determined as a percentage of the maximum value after subtracting the background. The results were expressed as the percentage of each sample compared to the negative control (PBS buffer, pH 7.4) and cell culture was incubated in a lysis buffer (10 mM Tris, pH 7.4, 1 mM ethylenediamine tetraacetic acid (EDTA), and 0.1% Triton X-100).

mice = tested on: mice
Method: Therefore, the anti-infective activity of mast-MO was then tested in pre-clinical mouse models. First, the toxicity of a single dose of either mast-L or mast-MO administered peritoneally to mice was assessed in order to determine the range of concentrations to be used in subsequent animal experiments. The hemolytic activity of mast-MO (up to 200 μmoL^−1) against murine red blood cells (Table 6) was also tested prior to conducting animal experiments.
Systemic bacterial infection mouse model. Acute toxicity assay was performed based on the work of Navon-Venezia and co-workers (46). The experiment was performed by intraperitoneal (i.p.) injection of the tested peptides to groups of 10 C57BL/6 mice. Each mouse was injected with a 0.5 mL solution of freshly prepared of peptides in PBS. The doses of peptide administered per mouse were 0, 10, 30, 50, 70 and 90 mg Kg^−1 of body weight. Animals were directly inspected for adverse effects for 6 h, and mortality was monitored for 7 days thereafter. Differences between groups were analysed using the Fisher exact test (differences were considered to be statistically significant when the P value was <0.05). Briefly, E. coli ATCC8739 and E. coli 1812446 or S. aureus ATCC 29213 and S. aureus (MRSA) ATCC33591 were plated on tryptic soy agar plus 5% sheep blood (blood agar, Himedia, India) from a frozen stock. Following 24 h of incubation of the agar plate, three isolated colonies were transferred to 1 mL of BHI. The broth culture was incubated overnight (12-16 h) at 37° C. with shaking. […] Mice were challenged with either strain of E. coli ATCC8739 and E. coli 1812446 or S. aureus ATC29213 and S. aureus (MRSA) ATCC33591 in a final volume of 200 μL of PBS by intraperitoneal injection (i.p.). The day of challenge was designated as day 1 of the experiment. Three hours after bacterial injection, mice (n=5) were treated, intraperitoneally, with different concentrations of peptides (1, 5 or 10 mg Kg^−1), LL-37, gentamicin and 10 mg Kg^−1 of imipenem or PBS for 8 days. For bacterial load evaluation, 5 mice per group were used. Animals were humanely killed 24 h after bacterial administration. To detect bacterial colonization, the peritoneal lavage samples were collected under sterile conditions. The peritoneal lavage was obtained by washing the cavity with 5 mL of sterile PBS. Samples were diluted serially, and 100 μL of each dilution was spread in duplicate on appropriate agar plates for the count of developed colonies. Cytokine levels (i.e., IFN-γ, IL-6, IL−10, IL−12p70 and TNF-α) in the peritoneal lavage of the mice both in the absence and presence of peptide treatment were quantified by ELISA (Peprotech, USA) according to the manufacturer's instructions.

[3] = tested on: murine macrophages monocytes (RAW 264.7); test: Cytotoxicity against RAW 264.7 cells (MTT); assay type: cell-based
[4] = tested on: human embryonic kidney (HEK293) cells; test: Cytotoxicity against HEK293 cells; assay type: cell-based
Excerpt: The FLPII motif was chosen for the permutations to preserve the natural antimicrobial activity of mast-L and also conserve the hydrophobic content inserted in the N-terminal extremity for the initial design of mast-MO. Next, we assessed the antimicrobial (FIG. 10) and cytotoxic activities of the mast-MO analog library against HEK293 cells (FIG. 6C). These specific cell line was chosen as it derives from human embryonic kidney cells and potential antimicrobial (i.e., AMPs, antibiotics) toxicity affects the kidneys, which are responsible for clearing such molecules (34). Also measured was whether the peptides aggregated at the highest concentration tested (128 μmoL^−1) (Table 7) since the motif inserted is composed of residues with aliphatic or aromatic side chain groups that may be prone to aggregation when in proximity within the primary peptide sequence, thus altering biological activity. Minor changes to the first five residues inserted in the mast-MO primary sequence led to a pronounced decrease in cytotoxic activity (2.5 to 5-fold) compared to mast-MO (FIG. 6C).

[5] = tested on: E. coli and S. aureus strains; test: Systemic infection experiments, summary over all strains; settings: 10 mg Kg^−1
[6] = tested on: mouse red blood cells (mRBCs); test: Hemolysis of mouse red blood cells; assay type: cell-based; settings: 0.5 to 200 μmol L^−1
Method: Hemolysis assays. Hemolytic activity of peptides was determined by using fresh mouse red blood cells (mRBCs), by measuring the peptide-induced changes of the optical density (OD) at 540 nm (Victor X, Perkin-Elmer, Germany), 100% lysis was determined by analysing the supernatant of erythrocytes that had been incubated with Triton X-100 (1%).

[7] = Dose 90 mg Kg^−1, five mice per group
[8] = RAW 264.7, 24 h, 0.5 to 200 μmol L^−1, MTT (Table 6)

In the case of `CC[C@H](C)[C@H](N)C(=O)N[C@@H](Cc1ccccc1)C(=O)N[C@@H](CC(C)C)C(=O)N1CCC[C@H]1C(=O)N[C@H](C(=O)N[C@H](C(=O)N[C@@H](CC(N)=O)C(=O)N[C@@H](CC(C)C)C(=O)N[C@@H](CCCCN)C(=O)N[C@@H](C)C(=O)N[C@@H](CC(C)C)C(=O)N[C@@H](C)C(=O)N[C@@H](C)C(=O)N[C@@H](CC(C)C)C(=O)N[C@@H](C)C(=O)N[C@@H](CCCCN)C(=O)N[C@@H](CCCCN)C(=O)N[C@H](C(=O)N[C@@H](CC(C)C)C(N)=O)[C@@H](C)CC)[C@@H](C)CC)[C@@H](C)CC` [Analog 15, IFLPIINLKALAALAKKIL], the “Side effects or adverse toxicity” value (P. aeruginosa) is reported as “did not cause any side effects or adverse toxicity”.
`CC[C@H](C)[C@H](NC(=O)[C@H](CCCCN)NC(=O)[C@H](CCCCN)NC(=O)[C@H](C)NC(=O)[C@H](CC(C)C)NC(=O)[C@H](C)NC(=O)[C@H](C)NC(=O)[C@H](CC(C)C)NC(=O)[C@H](C)NC(=O)[C@H](CCCCN)NC(=O)[C@H](CC(C)C)NC(=O)[C@H](CC(N)=O)NC(=O)[C@@H](NC(=O)[C@H](CC(C)C)NC(=O)[C@@H](NC(=O)[C@@H](NC(=O)[C@@H]1CCCN1C(=O)[C@@H](N)Cc1ccccc1)[C@@H](C)CC)[C@@H](C)CC)[C@@H](C)CC)C(=O)N[C@@H](CC(C)C)C(N)=O` [Analog 49, FPIILINLKALAALAKKIL] was tested, and the “Side effects or adverse toxicity” value (P. aeruginosa) was “did not cause any side effects or adverse toxicity”.
For `C[C@@H](O)[C@H]1C(=O)N2C(C(=O)O)=C(SCCN=CN)C[C@H]12` [Imipenem, imipenem], the “Cytotoxic activity, Peptide Concentration” value (“Cytotoxic activity” for short) ([1]; human) was >400 µmol/L, the “Cytotoxic activity” value ([2]; mouse) was >400 µmol/L and the “Gross toxicity, number of mice (TL)” value (mice; Dose 50 mg Kg^−1, five mice per group) was 2 (TL-1). For the same compound, the “Gross toxicity, number of mice (TL)” value (mice; [7]) was 3 (TL-2) and the “Cytotoxic activity” value ([3]; mouse) was >400 µmol/L.
In the case of `CC[C@H](C)[C@H](NC(=O)[C@H](CCCCN)NC(=O)[C@H](CCCCN)NC(=O)[C@H](C)NC(=O)[C@H](CC(C)C)NC(=O)[C@H](C)NC(=O)[C@H](C)NC(=O)[C@H](CC(C)C)NC(=O)[C@H](C)NC(=O)[C@H](CCCCN)NC(=O)[C@H](CC(C)C)NC(=O)[C@H](CC(N)=O)NC(=O)[C@@H](NC(=O)[C@@H](NC(=O)[C@@H](NC(=O)[C@@H]1CCCN1C(=O)[C@H](CC(C)C)NC(=O)[C@@H](N)Cc1ccccc1)[C@@H](C)CC)[C@@H](C)CC)[C@@H](C)CC)C(=O)N[C@@H](CC(C)C)C(N)=O` [Mast-MO, FLPIIINLKALAALAKKIL], the “Hemolytic activity in human red blood cell assays” value ([1]; concentration range tested 1-400 μmoL^−1) is reported as “did not present hemolytic activity”, the “Cytotoxic activity” value ([1]; hRBCs) is reported as >400 µmol/L and the “Cytotoxicity towards murine fibroblasts (L929 cells), in words” value [2] is reported as “not cytotoxic”. The “Cytotoxic activity” value ([2]; L929) was >400 µmol/L, the “Concentration toxic against HEK293” value [4] was 25 µmol⁻¹ and the “Cytotoxic activity” value ([4]; HEK293) was 25 µmol/L. The “Gross toxicity, number of mice (TL)” value (mice; [7]) was 2 (TL-1), the “Toxicity in preliminary mouse experiments, in words” value (mice; single dose, peritoneally) was “lacked toxicity” and the “Toxicity when injected systemically in the infection model” value [5] was “did not present toxicity”. For the same compound, the “Cytotoxicity towards murine macrophages (RAW 264.7 cells), in words” value [3] was “not cytotoxic” and the “Cytotoxic activity” value ([3]; RAW 264.7 (Table 2)) was >400 µmol/L.
For FLPII [FLPII motif, FLPII], the “Hemolytic activity, Peptide Concentration” value [6] was >200 µmol/L and the “Cytotoxic activity” value [3, 8] was >200 µmol/L.
In the case of “LL-37: human cathelicidin LL-37, used for comparison”, the “Cytotoxic activity” value ([1]; hRBCs) is reported as 87 µmol/L, the “Hemolytic activity, Peptide Concentration” value [6] is reported as 100 µmol/L and the “Cytotoxic activity” value ([2]; L929) is reported as 95 µmol/L. The “Cytotoxic activity” value ([3]; RAW 264.7 (Table 2)) was 100 µmol/L and the “Cytotoxic activity” value [3, 8] was 100 µmol/L.
For gentamicin, the “Cytotoxic activity” value ([1]; hRBCs) was >400 µmol/L, the “Cytotoxic activity” value ([2]; L929) was >400 µmol/L and the “Cytotoxic activity” value ([3]; RAW 264.7 (Table 2)) was >400 µmol/L.

From patent publication US12116387B2, “Antimicrobial peptides” (priority 2021, dated 2024)
